Laboratory results: PubChem BioAssay (NCI)
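1) Cells in 96-well plates. 2) Compound, 48 h, 5 concentrations. 3) Linear interpolation between surrounding doses. 4) Unreached endpoint = highest concentration. TGI marks complete inhibition of growth.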

What was measured:
Experiment in all cases: NCI-60 cell line screen, 48 h
HT29 colon = tested on: HT29 colon
NCI-H522 lung = tested on: NCI-H522 lung
OVCAR-8 ovarian = tested on: OVCAR-8 ovarian
HOP-92 NSCLC = tested on: HOP-92 NSCLC
TK-10 renal = tested on: TK-10 renal
K-562 leukemia = tested on: K-562 leukemia
HL-60(TB) leukemia = tested on: HL-60(TB) leukemia
SK-MEL-2 melanoma = tested on: SK-MEL-2 melanoma
RPMI-8226 leukemia = tested on: RPMI-8226 leukemia
UACC-62 melanoma = tested on: UACC-62 melanoma
NCI-H460 lung = tested on: NCI-H460 lung
RXF 393 renal = tested on: RXF 393 renal
SF-539 CNS = tested on: SF-539 CNS
M14 melanoma = tested on: M14 melanoma
DMS 114 small cell lung = tested on: DMS 114 small cell lung
M19-MEL melanoma = tested on: M19-MEL melanoma
A498 renal = tested on: A498 renal
MALME-3M melanoma = tested on: MALME-3M melanoma
NCI-H23 lung = tested on: NCI-H23 lung
MOLT-4 leukemia = tested on: MOLT-4 leukemia
LOX IMVI melanoma = tested on: LOX IMVI melanoma
CAKI-1 renal = tested on: CAKI-1 renal
SF-268 CNS = tested on: SF-268 CNS
SNB-75 CNS = tested on: SNB-75 CNS
NCI-H226 lung = tested on: NCI-H226 lung
A549 NSCLC = tested on: A549 NSCLC
COLO 205 colon = tested on: COLO 205 colon
HOP-18 NSCLC = tested on: HOP-18 NSCLC
HOP-62 NSCLC = tested on: HOP-62 NSCLC
EKVX NSCLC = tested on: EKVX NSCLC
OVCAR-4 ovarian = tested on: OVCAR-4 ovarian
SF-295 CNS = tested on: SF-295 CNS
HCT-15 colon = tested on: HCT-15 colon
CCRF-CEM leukemia = tested on: CCRF-CEM leukemia
SK-OV-3 ovarian = tested on: SK-OV-3 ovarian
SN12C renal = tested on: SN12C renal
DLD-1 colon = tested on: DLD-1 colon
LXFL 529 NSCLC = tested on: LXFL 529 NSCLC
DMS 273 small cell lung = tested on: DMS 273 small cell lung
UO-31 renal = tested on: UO-31 renal
RXF-631 renal = tested on: RXF-631 renal
OVCAR-5 ovarian = tested on: OVCAR-5 ovarian
XF 498 CNS = tested on: XF 498 CNS
UACC-257 melanoma = tested on: UACC-257 melanoma
KM12 colon = tested on: KM12 colon
OVCAR-3 ovarian = tested on: OVCAR-3 ovarian
KM20L2 colon = tested on: KM20L2 colon
SNB-78 CNS = tested on: SNB-78 CNS
786-0 renal = tested on: 786-0 renal
HCT-116 colon = tested on: HCT-116 colon
SW-620 colon = tested on: SW-620 colon
SK-MEL-5 melanoma = tested on: SK-MEL-5 melanoma
U251 CNS = tested on: U251 CNS
SNB-19 CNS = tested on: SNB-19 CNS
SR leukemia = tested on: SR leukemia
IGROV1 ovarian = tested on: IGROV1 ovarian
HCC-2998 colon = tested on: HCC-2998 colon
ACHN renal = tested on: ACHN renal
SK-MEL-28 melanoma = tested on: SK-MEL-28 melanoma

For `COc1ccc(C(c2ccc(C(C)C)cc(OC)c2=O)c2ccc(C(C)C)cc(OC)c2=O)cc1`, the TGI (HT29 colon) was 22.7 µM, the TGI (NCI-H522 lung) was 27.8 µM and the TGI (OVCAR-8 ovarian) was 32.5 µM. It also gave a TGI (HOP-92 NSCLC) of 27.1 µM, a TGI (TK-10 renal) of 34.2 µM and a TGI (K-562 leukemia) of 35.9 µM. The TGI (HL-60(TB) leukemia) was 41.9 µM, the TGI (SK-MEL-2 melanoma) was 29.3 µM and the TGI (RPMI-8226 leukemia) was 25.6 µM. For the same molecule, the TGI (UACC-62 melanoma) was 28.1 µM, the TGI (NCI-H460 lung) was 30 µM and the TGI (RXF 393 renal) was 15 µM. It also gave a TGI (SF-539 CNS) of 30.9 µM, a TGI (M14 melanoma) of 28 µM and a TGI (DMS 114 small cell lung) of 24.7 µM. The TGI (M19-MEL melanoma) was 27.1 µM, the TGI (A498 renal) was 31.7 µM and the TGI (MALME-3M melanoma) was 30.6 µM. For the same molecule, the TGI (NCI-H23 lung) was 30.8 µM, the TGI (MOLT-4 leukemia) was 31.3 µM and the TGI (LOX IMVI melanoma) was 31 µM. The TGI (CAKI-1 renal) was 33.3 µM, the TGI (SF-268 CNS) was 26.5 µM and the TGI (SNB-75 CNS) was 34 µM. For the same molecule, the TGI (NCI-H226 lung) was 32.3 µM, the TGI (A549 NSCLC) was 24.6 µM and the TGI (COLO 205 colon) was 31.1 µM. The TGI (HOP-18 NSCLC) was 40.1 µM, the TGI (HOP-62 NSCLC) was 35.5 µM and the TGI (EKVX NSCLC) was 26.6 µM. It also gave a TGI (OVCAR-4 ovarian) of 24.9 µM, a TGI (SF-295 CNS) of 29.7 µM and a TGI (HCT-15 colon) of 25.3 µM. The TGI (CCRF-CEM leukemia) was 38.5 µM, the TGI (SK-OV-3 ovarian) was 32.3 µM and the TGI (SN12C renal) was 30.3 µM. For the same molecule, the TGI (DLD-1 colon) was 19.6 µM, the TGI (LXFL 529 NSCLC) was 28.1 µM and the TGI (DMS 273 small cell lung) was 28 µM. For the same molecule, the TGI (UO-31 renal) was 27.3 µM, the TGI (RXF-631 renal) was 34.8 µM and the TGI (OVCAR-5 ovarian) was 34.3 µM. For the same molecule, the TGI (XF 498 CNS) was 34.7 µM, the TGI (UACC-257 melanoma) was 29 µM and the TGI (KM12 colon) was 26.4 µM. For the same molecule, the TGI (OVCAR-3 ovarian) was 26 µM, the TGI (KM20L2 colon) was 27 µM and the TGI (SNB-78 CNS) was 27.3 µM. The TGI (786-0 renal) was 30.5 µM, the TGI (HCT-116 colon) was 23.1 µM and the TGI (SW-620 colon) was 28.8 µM. For the same molecule, the TGI (SK-MEL-5 melanoma) was 27.4 µM, the TGI (U251 CNS) was 26.6 µM and the TGI (SNB-19 CNS) was 29.3 µM. For the same molecule, the TGI (SR leukemia) was 38.2 µM.
`CC(C)=CCCC(C)[C@H]1CC(O)C2(C)C3=CCC4C(C)(C)[C@@H](O)CC[C@]4(C)C3=CC[C@]12C` (stereo not given in full) gave a TGI (HT29 colon) of 14.6 µM, a TGI (NCI-H522 lung) of 16.2 µM and a TGI (OVCAR-8 ovarian) of 3.79 µM. For the same molecule, the TGI (HOP-92 NSCLC) was 9.53 µM, the TGI (TK-10 renal) was 50.1 µM and the TGI (K-562 leukemia) was 26.6 µM. It also gave a TGI (HL-60(TB) leukemia) of 35 µM, a TGI (SK-MEL-2 melanoma) of 79.5 µM and a TGI (RPMI-8226 leukemia) of 34.4 µM. The TGI (UACC-62 melanoma) was 15.1 µM, the TGI (NCI-H460 lung) was 4.92 µM and the TGI (RXF 393 renal) was 7.59 µM. For the same molecule, the TGI (SF-539 CNS) was 6.58 µM, the TGI (M14 melanoma) was 18.5 µM and the TGI (DMS 114 small cell lung) was 33.5 µM. For the same molecule, the TGI (M19-MEL melanoma) was 13.8 µM, the TGI (A498 renal) was 16.3 µM and the TGI (MALME-3M melanoma) was 34.2 µM. For the same molecule, the TGI (NCI-H23 lung) was 14.9 µM, the TGI (MOLT-4 leukemia) was 42.4 µM and the TGI (LOX IMVI melanoma) was 1.07 µM. The TGI (CAKI-1 renal) was 24.4 µM, the TGI (SF-268 CNS) was 28.3 µM and the TGI (SNB-75 CNS) was 21.3 µM. The TGI (NCI-H226 lung) was 15.1 µM, the TGI (A549 NSCLC) was 10.6 µM and the TGI (COLO 205 colon) was 20.7 µM. It also gave a TGI (IGROV1 ovarian) of 48.7 µM, a TGI (HOP-18 NSCLC) of 31.6 µM and a TGI (HOP-62 NSCLC) of 18.9 µM. For the same molecule, the TGI (EKVX NSCLC) was > 100 µM, the TGI (OVCAR-4 ovarian) was 6.48 µM and the TGI (SF-295 CNS) was 5.91 µM. The TGI (HCT-15 colon) was 45.7 µM, the TGI (CCRF-CEM leukemia) was 25.8 µM and the TGI (SK-OV-3 ovarian) was 24.8 µM. It also gave a TGI (SN12C renal) of 12.3 µM, a TGI (DLD-1 colon) of 27.1 µM and a TGI (LXFL 529 NSCLC) of 5.09 µM. For the same molecule, the TGI (DMS 273 small cell lung) was 3.74 µM, the TGI (UO-31 renal) was 41.6 µM and the TGI (RXF-631 renal) was 34 µM. For the same molecule, the TGI (OVCAR-5 ovarian) was > 100 µM, the TGI (XF 498 CNS) was 25.1 µM and the TGI (UACC-257 melanoma) was > 100 µM. For the same molecule, the TGI (KM12 colon) was > 100 µM, the TGI (OVCAR-3 ovarian) was 13.1 µM and the TGI (KM20L2 colon) was 93.6 µM. For the same molecule, the TGI (SNB-78 CNS) was 32.4 µM, the TGI (786-0 renal) was 3.52 µM and the TGI (HCT-116 colon) was 6.22 µM. For the same molecule, the TGI (SW-620 colon) was 14.7 µM, the TGI (SK-MEL-5 melanoma) was > 100 µM and the TGI (U251 CNS) was 6.54 µM. For the same molecule, the TGI (SNB-19 CNS) was 30.2 µM and the TGI (SR leukemia) was 44.2 µM.
In the case of `CCOC(=O)C1C(c2ccccc2)=C(c2ccccc2)C(c2ccccc2)=C1c1ccccc1`, the TGI (HT29 colon) was > 100 µM, the TGI (NCI-H522 lung) was 98.1 µM and the TGI (OVCAR-8 ovarian) was > 72.7 µM. The TGI (HCC-2998 colon) was > 100 µM, the TGI (HOP-92 NSCLC) was 50.7 µM and the TGI (TK-10 renal) was 57.4 µM. The TGI (K-562 leukemia) was > 100 µM, the TGI (HL-60(TB) leukemia) was > 100 µM and the TGI (SK-MEL-2 melanoma) was > 82.3 µM. The TGI (RPMI-8226 leukemia) was > 100 µM, the TGI (UACC-62 melanoma) was 60.9 µM and the TGI (ACHN renal) was > 82.2 µM. The TGI (NCI-H460 lung) was > 100 µM, the TGI (RXF 393 renal) was 40.4 µM and the TGI (SF-539 CNS) was 91 µM. For the same molecule, the TGI (M14 melanoma) was > 100 µM, the TGI (DMS 114 small cell lung) was > 100 µM and the TGI (M19-MEL melanoma) was > 100 µM. The TGI (A498 renal) was 57.1 µM, the TGI (MALME-3M melanoma) was > 91.7 µM and the TGI (NCI-H23 lung) was > 100 µM. For the same molecule, the TGI (MOLT-4 leukemia) was > 100 µM, the TGI (LOX IMVI melanoma) was > 100 µM and the TGI (SK-MEL-28 melanoma) was > 100 µM. The TGI (CAKI-1 renal) was > 100 µM, the TGI (SF-268 CNS) was > 100 µM and the TGI (SNB-75 CNS) was 32.1 µM. The TGI (NCI-H226 lung) was > 60.1 µM, the TGI (A549 NSCLC) was 97.4 µM and the TGI (COLO 205 colon) was > 100 µM. The TGI (IGROV1 ovarian) was > 70.2 µM, the TGI (HOP-18 NSCLC) was 82.4 µM and the TGI (HOP-62 NSCLC) was 33.3 µM. For the same molecule, the TGI (EKVX NSCLC) was > 100 µM, the TGI (OVCAR-4 ovarian) was > 100 µM and the TGI (SF-295 CNS) was 69.8 µM. For the same molecule, the TGI (HCT-15 colon) was > 100 µM, the TGI (CCRF-CEM leukemia) was > 100 µM and the TGI (SK-OV-3 ovarian) was 49 µM. For the same molecule, the TGI (SN12C renal) was > 83.6 µM, the TGI (DLD-1 colon) was > 100 µM and the TGI (LXFL 529 NSCLC) was > 100 µM. The TGI (DMS 273 small cell lung) was > 100 µM, the TGI (UO-31 renal) was > 93.7 µM and the TGI (RXF-631 renal) was > 100 µM. For the same molecule, the TGI (OVCAR-5 ovarian) was > 100 µM, the TGI (XF 498 CNS) was > 56.8 µM and the TGI (UACC-257 melanoma) was > 100 µM. For the same molecule, the TGI (KM12 colon) was > 100 µM, the TGI (OVCAR-3 ovarian) was 68.7 µM and the TGI (KM20L2 colon) was > 100 µM. The TGI (SNB-78 CNS) was > 91.6 µM, the TGI (786-0 renal) was 55.8 µM and the TGI (HCT-116 colon) was > 76.6 µM. The TGI (SW-620 colon) was > 100 µM, the TGI (SK-MEL-5 melanoma) was > 100 µM and the TGI (U251 CNS) was 55.7 µM. For the same molecule, the TGI (SNB-19 CNS) was 40.3 µM and the TGI (SR leukemia) was > 100 µM.
